From patent US9044015B2, “Heterocyclic compounds as pesticides” (Bayer CropScience AG, priority 2010, dated 2015)

Key:
Myzus persicae = experiment: Myzus test (spray treatment); assay type: in vivo; details: foliar, application rate 500 g/ha, sprayed Chinese cabbage leaf discs, all stages of green peach aphid, read-out: efficacy in % (aphids killed)
Procedure: Solvent 78 parts by weight of acetone • • 1.5 parts by weight of dimethylformamide
Emulsifier: 0.5 part by weight of alkylaryl polyglycol ether
To prepare an appropriate active ingredient preparation, 1 part by weight of active ingredient is mixed with the stated amounts of solvent and emulsifier, and the concentrate is diluted with emulsifier-containing water to the desired concentration.

[1] = Determination of the log P values (formic acid method)
Procedure: 1) Description of Method for Determination of the log P Values (Formic Aid Method)
Eluents for determination in the acidic range (pH 3.4):
Eluent A: acetonitrile+1 ml of formic acid/liter. Eluent B: water+0.9 ml of formic acid/liter.
The lambda max values were determined in the maxima of the chromatographic signals using the UV spectra from 200 nm to 400 nm.

[2] = tested on: Myzus persicae organophosphate/carbamate resistant strain; experiment: Myzus spray test; details: application rate 100 ppm; after 6 days; sprayed aubergine plants; 100% = all insects killed
Meloidogyne incognita = Meloidogyne incognita test; assay type: in vivo; details: application rate 20 ppm; lettuce in sand with egg/larvae suspension
Procedure: Meloidogyne Incognita Test
Solvent: 80.0 parts by weight of acetone
Vessels are filled with sand, active ingredient solution, Meloidogyne incognita egg/larvae suspension and lettuce seeds. The lettuce seeds germinate and the plants develop. Galls develop on the roots.
After the desired time, the nematicidal action is determined by the gall formation in %. 100% means that no galls were found; 0% means that the number of galls on the treated plants corresponds to the untreated control.

[3] = reverse-phase C18 HPLC column, pH 3.4, logP (HCOOH), final compounds table, HPLC reverse-phase C18, acidic range pH 3.4, 55° C.
[4] = reverse-phase C18 HPLC column, pH 3.4, log P (HCOOH), preparation examples, HPLC-MS

Row | SMILES | chromatographic logP [1, 3] | chromatographic logP ([1]; pH 3.4, logP (HCOOH)) | pest or weed control at 500 g/ha (Myzus persicae) | further results
1 | O=C(NS(=O)(=O)C1CC1)c1cccc(-c2cnn(-c3cncc(F)c3)c2)n1 [Compound 29] | 2.35 |  | 100% | 
2 | O=C(NS(=O)(=O)C1CC1)c1cccc(-c2cnn(-c3cccnc3)c2)n1 [Compound 30] |  | 1.85 | 100% | 
3 | O=C(NS(=O)(=O)c1ccccc1)c1cccc(-c2cnn(-c3cccnc3)c2)n1 [Compound 32] | 2.26 |  | 90% | 
4 | O=C(NS(=O)(=O)Cc1ccccc1)c1cccc(-c2cnn(-c3cncnc3)c2)n1 [Compound 34] | 2.28 |  | 90% | 
5 | O=C(NS(=O)(=O)Cc1ccccc1)c1cccc(-c2cnn(-c3cccnc3)c2)n1 [Compound 35] |  | 2.44 | 100% | 
6 | CS(=O)(=O)NC(=O)c1csc(-c2cnn(-c3cccnc3)c2)n1 [Compound 36, N-(Methylsulphonyl)-2-[1-(pyridin-3-yl)-1H-pyrazol-4-yl]-1,3-thiazole-4-carboxamide] |  | 1.25 | 100% | chromatographic logP ([1]; pH 3.4, log P (HCOOH)): 1.25
7 | CCN(CC)S(=O)(=O)NC(=O)c1cccc(-c2cnn(-c3cncc(F)c3)c2)n1 [Compound 39] |  | 2.98 | 100% | 
8 | CCN(CC)S(=O)(=O)NC(=O)c1cccc(-c2cnn(-c3cccnc3)c2)n1 [Compound 40] |  | 2.49 | 100% | 
9 | CCC(=O)NS(=O)(=O)c1cccc(-c2cnn(-c3cccnc3)c2)n1 [Compound 42] | 1.43 |  | 100% | 
10 | CS(=O)(=O)NC(=O)c1nc(-c2cnn(-c3cccnc3)c2)cs1 [Compound 45] |  | 1.16 | 90% | 
11 | CS(=O)(=O)NC(=O)c1nc(-c2cnn(-c3cncc(F)c3)c2)cs1 [Compound 46, 4-[1-(5-Fluoropyridin-3-yl)-1H-pyrazol-4-yl]-N-(methylsulphonyl)-1,3-thiazole-2-carboxamide] | 1.68 |  | 100% | chromatographic logP [1, 4]: 1.68
12 | COC(=N)c1cccc(-c2cnc(-c3cccnc3)s2)n1 [Compound 49] |  |  |  | efficacy in % [2]: 100%
13 | COC(=N)c1cccc(-c2cnc(-c3cncc(F)c3)s2)n1 [Compound 50, Methyl 6-[2-(5-fluoropyridin-3-yl)-1,3-thiazol-5-yl]pyridine-2-carboximidoate] |  |  |  | efficacy in % [2]: 100%; chromatographic logP [1, 4]: 0.9
14 | CN(C(=O)c1cccc(-c2cnc(-c3cncc(F)c3)s2)n1)S(C)(=O)=O [Compound 52] | 2.27 |  | 100% | 
15 | CN(C)S(=O)(=O)NC(=O)c1cccc(-c2cnc(-c3cncc(F)c3)s2)n1 [Compound 53] |  | 2.54 | 100% | 
16 | O=C(NS(=O)(=O)N1CCCCC1)c1cccc(-c2cnc(-c3cncc(F)c3)s2)n1 [Compound 54] | 3.29 |  | 100% | 
17 | CC(C)(C)S(=O)(=O)NC(=O)c1cccc(-c2cnc(-c3cncc(F)c3)s2)n1 [Compound 56] | 2.77 |  | 100% | efficacy in % (nematicidal action by gall formation) (Meloidogyne incognita): 100%
18 | Cc1nc(Cl)sc1S(=O)(=O)NC(=O)c1cccc(-c2cnc(-c3cncc(F)c3)s2)n1 [Compound 59] | 3.41 |  | 100% | 
19 | CC(C)N(C)S(=O)(=O)NC(=O)c1cccc(-c2cnc(-c3cncc(F)c3)s2)n1 [Compound 60] |  | 3.09 | 100% | 
20 | CC(C1CC1)N(C)S(=O)(=O)NC(=O)c1cccc(-c2cnc(-c3cncc(F)c3)s2)n1 (stereo not shown) [Compound 61] |  | 3.47 | 100% | 
21 | CN(C)S(=O)(=O)NC(=O)c1cccc(-c2cnc(-c3cncnc3)s2)n1 [Compound 62] | 1.9 |  | 80% | 
22 | Cc1nc(-c2cncc(F)c2)sc1-c1cc(C(=O)NS(C)(=O)=O)n(C)n1 [Compound 63, 3-[2-(5-Fluoropyridin-3-yl)-4-methyl-1,3-thiazol-5-yl]-1-methyl-N-(methylsulphonyl)-1H-pyrazole-5-carboxamide] | 2.04 |  | 80% | chromatographic logP [1, 4]: 2.04
23 | CN(C)S(=O)(=O)NC(=O)c1cccc(-c2cnc(-c3cccnc3)s2)n1 [Compound 66] |  | 2.01 | 100% | 
24 | CC(=O)NS(=O)(=O)c1cccc(-c2cnc(-c3cncc(F)c3)s2)n1 [Compound 67] | 1.72 |  | 100% | 
25 | C#CCN(C(=O)c1cccc(-c2cnc(-c3cncc(F)c3)s2)n1)S(C)(=O)=O [Compound 68] |  | 2.56 | 100% | 
26 | CC(=O)NS(=O)(=O)c1cccc(-c2cnc(-c3cccnc3)s2)n1 [Compound 69, N-({6-[2-(Pyridin-3-yl)-1,3-thiazol-5-yl]pyridin-2-yl}sulphonyl)acetamide] |  | 1.3 | 100% | chromatographic logP ([1]; pH 3.4, log P (HCOOH)): 1.3
27 | O=C(NS(=O)(=O)CC(F)(F)F)c1cccc(-c2nnc(-c3cncc(F)c3)s2)n1 [Compound 73] | 2.42 |  | 100% | 
28 | COCCS(=O)(=O)NC(=O)c1cccc(-c2nnc(-c3cncc(F)c3)s2)n1 [Compound 74] |  | 1.97 | 90% | 
29 | O=C(NS(=O)(=O)c1cccs1)c1cccc(-c2nnc(-c3cncc(F)c3)s2)n1 [Compound 75] | 2.38 |  | 100% | efficacy in % (nematicidal action by gall formation) (Meloidogyne incognita): 100%
30 | CC(=O)Nc1nnc(S(=O)(=O)NC(=O)c2cccc(-c3nnc(-c4cncc(F)c4)s3)n2)s1 [Compound 76] | 1.43 |  | 100% | 

Continued, in another order:

Row | chromatographic logP [1, 3] | chromatographic logP ([1]; pH 3.4, logP (HCOOH)) | SMILES | pest or weed control at 500 g/ha (Myzus persicae) | further results
31 |  | 2.82 | O=C(NS(=O)(=O)c1ccccc1)c1cccc(-c2cnn(-c3cncc(F)c3)c2)n1 [Compound 31] | 100% | 
32 | 2.89 |  | O=C(NS(=O)(=O)Cc1ccccc1)c1cccc(-c2cnn(-c3cncc(F)c3)c2)n1 [Compound 33] | 100% | 
33 |  | 1.66 | CS(=O)(=O)NC(=O)c1csc(-c2cnn(-c3cncc(F)c3)c2)n1 [Compound 37] | 90% | 
34 |  | 2.36 | CCN(CC)S(=O)(=O)NC(=O)c1cccc(-c2cnn(-c3cncnc3)c2)n1 [Compound 38] | 90% | 
35 |  | 1.17 | CC(=O)NS(=O)(=O)c1cccc(-c2cnn(-c3cccnc3)c2)n1 [Compound 41, N-({6-[1-(Pyridin-3-yl)-1H-pyrazol-4-yl]pyridin-2-yl}sulphonyl)acetamide] | 100% | chromatographic logP ([1]; pH 3.4, log P (HCOOH)): 1.17
36 | 1.95 |  | CS(=O)(=O)NC(=O)c1cccc(-c2cnc(-c3cncc(C#N)c3)s2)n1 [Compound 51] | 100% | 
37 | 2.19 |  | COCCS(=O)(=O)NC(=O)c1cccc(-c2cnc(-c3cncc(F)c3)s2)n1 [Compound 55] | 100% | 
38 |  | 2.58 | O=C(NS(=O)(=O)CC(F)(F)F)c1cccc(-c2cnc(-c3cncc(F)c3)s2)n1 [Compound 57] | 100% | 
39 | 3 |  | Cc1noc(C)c1S(=O)(=O)NC(=O)c1cccc(-c2cnc(-c3cncc(F)c3)s2)n1 [Compound 58] | 100% | 
40 |  | 1.84 | Cc1nc(-c2cncc(F)c2)sc1-c1cc(C(=O)NS(C)(=O)=O)nn1C [Compound 64] | 100% | 
41 | 2.28 |  | CS(=O)(=O)N(CC#N)C(=O)c1cccc(-c2cnc(-c3cncc(F)c3)s2)n1 [Compound 65] | 90% | 
42 | 2.07 |  | CCS(=O)(=O)NC(=O)c1cccc(-c2nnc(-c3cncc(F)c3)s2)n1 [Compound 70] | 100% | efficacy in % (nematicidal action by gall formation) (Meloidogyne incognita): 100%
43 |  | 2.14 | O=C(NS(=O)(=O)C1CC1)c1cccc(-c2nnc(-c3cncc(F)c3)s2)n1 [Compound 71] | 100% | 
44 |  | 2.31 | CC(C)S(=O)(=O)NC(=O)c1cccc(-c2nnc(-c3cncc(F)c3)s2)n1 [Compound 72] | 100% | 
45 | 2.38 |  | CC(C)(C)S(=O)(=O)NC(=O)c1cccc(-c2nnc(-c3cncc(F)c3)s2)n1 [Compound 77] | 100% | 
46 | 3.08 |  | O=C(NS(=O)(=O)c1ccc(Cl)s1)c1cccc(-c2nnc(-c3cncc(F)c3)s2)n1 [Compound 78] | 100% | efficacy in % (nematicidal action by gall formation) (Meloidogyne incognita): 100%
